Laboratory results published in US20070031328A1, “Radiolabeled-pegylation of ligands for use as imaging agents” (priority 2005, published 2007).
Where two headings read alike, the source gives them in different places.

Columns and labels:
[1] = log of partition coefficient between 1-Octanol and buffer; compounds marked as from ref (20); cited from earlier work
[2] = biological target: T1, Ab aggregates of AD brain homogenates (Homo sapiens, UniProt P05067); conditions: [125I]IMPY, values marked as from refs (20), (6), (15); cited from earlier work
T1 construct: to Ab aggregates of AD brain homogenates; from tissue; host or cells: post-mortem grey matter of AD patients, homogenised in PBS
T1 sequence (P05067 672-713 limits assumed): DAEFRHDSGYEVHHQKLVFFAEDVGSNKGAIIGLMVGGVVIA

[3] = Periodic HPLC injection of purified [18F]8b (second peak formation); type: physicochemical; conditions: purified tracer injected periodically on HPLC after purification; attributed to E and Z isomers
Method: Radiolabeled [^18F]8b was prepared from the mesylate precursor in moderate radiochemical yield (23%) but unfortunately could not be prepared in good radiochemical purity. The formation of a second peak was evident within minutes of labeling. […] They attribute the formation of a second peak to the facile formation of E and Z isomers (30).
[^18F]8b from precursor 11: (HPLC conditions: Phenomenex Gemini C18 semi-prep column [(5.0×250 mm, 5 μm); Acetonitrile/water 60/40; flow rate 3 mL/min)
Retention time of ^18F-labeled product was 28.0 min., well separated from the major hydrolysis by-product (Rt=11.8 min.). The product was isolated in 23% radiochemical yield (decay corrected) and greater than 98% radiochemical purity. Purified [^18F]8b was injected periodically after purification. Formation of a second peak increased to 50% of the parent compound.

[4] = biological target: T1, Ab aggregates of AD brain homogenates; assay: Inhibition of [125I]IMPY binding to Aβ aggregates of AD brain homogenates; parameters: species or system human (AD patients)
Method: Postmortem brain tissues were obtained from AD patients at autopsy, and neuropathological diagnosis was confirmed by current criteria (NIA-Reagan Institute Consensus Group, 1997). Homogenates were then prepared from dissected gray matters from AD patients in phosphate buffered saline (PBS, pH 7.4) at the concentration of approximately 100 mg wet tissue/ml (motor-driven glass homogenizer with setting of 6 for 30 sec).
(§1) Binding assays were carried out in 12×75 mm borosilicate glass tubes. […] The mixture was incubated at 37° C. for 2 hr and the bound and the free radioactivity were separated by vacuum filtration through Whatman GF/B filters using a Brandel M-24R cell harvester followed by 2×3 ml washes of PBS at room temperature. Filters containing the bound ^125I ligand were assayed for radioactivity content in a gamma counter (Packard 5000) with 70% counting efficiency.
as §1, with “efficiency. […] The results of inhibition experiments were subjected to nonlinear regression analysis using EBDA by which Ki values were calculated.” for “efficiency.”

[5] = Partition coefficients, 1-octanol/buffer; type: physicochemical; conditions: log of partition coefficient between 1-Octanol and buffer (0.1 M phosphate, pH 7.4)
Method: Partition coefficients were measured by mixing the [^18F]tracer with 3 g each of 1-octanol and buffer (0.1 M phosphate, pH 7.4) in a test tube. The test tube was vortexed for 3 min at room temperature, followed by centrifugation for 5 min. Two weighed samples (0.5 g each) from the 1-octanol and buffer layers were counted in a well counter. The partition coefficient was determined by calculating the ratio of cpm/g of 1-octanol to that of buffer. Samples from the 1-octanol layer were re-partitioned until consistent partitions of coefficient values were obtained (usually the 3rd or 4th partition). The measurement was done in triplicate and repeated three times.

[6] = 1-octanol/buffer, read-out: logP

Row | SMILES | Ki [4] [nM] | logP [5, 6] | further results
1 | CNc1ccc(/C=C/c2ccc(OCCOCCOCCF)cc2)cc1 [Compound 1b] |  |  | logP [1]: 2.41; Ki [2]: 6.7 ± 0.3 nM
2 | CN(C)c1ccc(/C=C/c2nc3ccc(OCCOCCOCC[18F])cc3o2)cc1 [[^18F]8b] |  |  | Formation of a second peak, of the parent compound [3]: 50%
3 | CN(C)c1ccc(-c2cn3cc(OCCOCCOCCF)ccc3n2)cc1 [Compound 12c, 6-(2-fluoroethoxy-ethoxy-ethoxy)-2-(4-dimethylamino-)phenyl-imidazo[1,2-a]pyridine] | 30 ± 2.5 | 2.69 | 
4 | CNc1ccc(/C=C/c2ccc(O)cc2)cc1 [SB-13, reference compound] |  |  | logP [5]: 2.36
5 | CNc1ccc(-c2nc3ccc(OCCOCCF)cc3s2)cc1 [Compound 5a, 2-[4′-(methylamino)phenyl]-6-[2-(2-fluoroethoxy)-ethoxy]benzothiazole] | 2.2 ± 0.5 | 3.04 | 
6 | CNc1ccc(-c2nc3ccc(OCCOCCOCCOCCOCCOCCF)cc3s2)cc1 [Compound 5c, 2-[4′-(methylamino)phenyl]-6-{2-[2-(2-{2-[2-(2-fluoroethoxy)-ethoxy]ethoxy}ethoxy)ethoxy]ethoxy}benzothiazole] | 4.7 ± 0.9 | 2.99 | 
7 | CNc1ccc(-c2nc3ccc(OCCOCCOCCF)cc3s2)cc1 [Compound 5b, 2-[4′-(methylamino)phenyl]-6-{2-[2-(2-fluoroethoxy)-ethoxy]ethoxy}benzothiazole] | 3.8 ± 0.5 | 3.04 | 
8 | CN(C)c1ccc(C=Cc2nc3ccc(OCCOCCOCCOCCOCCOCCOCCOCCF)cc3o2)cc1 [Compound 8d, 6-(2-(2-(2-(2-(2-(2-(2-(2-fluoroethoxy)-ethoxy)-ethoxy)-ethoxy)-ethoxy)-ethoxy)-ethoxy)-ethoxy)-[2-(4-dimethylaminophenyl)-vinyl]-benzooxazol] | 6 ± 0.6 |  | 
9 | CN(C)c1ccc(-c2cn3cc(OCCOCCF)ccc3n2)cc1 [Compound 12b, 6-(2-fluoroethoxy-ethoxy)-2-(4-dimethylamino-)phenyl-imidazo[1,2-a]pyridine] | 31 ± 9 |  | 
10 | CNc1ccc(/C=C/c2ccc(OCCOCCOCCOCCOCCF)cc2)cc1 [Compound 1d] |  |  | logP [1]: 2.27; Ki [2]: 6.8 ± 0.8 nM
11 | CN(C)c1ccc(-c2cn3cc(OCCOCCOCCOCCOCCOCCF)ccc3n2)cc1 [Compound 12d, 6-(2-fluoroethoxy-ethoxy-ethoxy-ethoxy-ethoxy-ethoxy)-2-(4-dimethylamino-)phenyl-imidazo[1,2-a]pyridine] | 96 ± 14 |  | 
12 | CNc1ccc(/C=C/c2nc3ccc(OCCF)cc3o2)cc1 [BF-168, reference compound] |  |  | Ki [2]: 6.4 nM
13 | CNc1ccc(/C=C/c2ccc(OCCOCCOCCOCCF)cc2)cc1 [Compound 1c] |  |  | logP [1]: 2.05; Ki [2]: 4.4 ± 0.8 nM
14 | CN(C)c1ccc(-c2cn3cc(I)ccc3n2)cc1 [IMPY, 6-iodo-2-(4′-dimethylamino)phenyl-imidazo[1,2-a]pyridine, reference compound] |  | 2.19 | 
15 | CNc1ccc(/C=C/c2ccc(OCCOCCF)cc2)cc1 [Compound 1a] |  |  | logP [1]: 2.53; Ki [2]: 2.9 ± 0.2 nM
16 | CN(C)c1ccc(/C=C/c2nc3ccc(OCCOCCOCCOCCOCCOCCF)cc3o2)cc1 [Compound 8c, 6-(2-(2-(2-(2-(2-(2-fluoroethoxy)-ethoxy)-ethoxy)-ethoxy)-ethoxy)-ethoxy)-[2-(4-dimethylaminophenyl)-vinyl]-benzooxazol] | 10 ± 0.2 |  | 
17 | CN(C)c1ccc(C=Cc2nc3ccc(OCCOCCOCCF)cc3o2)cc1 [Compound 8b, 6-(2-(2-(2-fluoroethoxy)-ethoxy)-ethoxy)-[2-(4-dimethylaminophenyl)-vinyl]-benzooxazol] | 14.5 ± 5 | 2.93 | 
